Assay results from patent US6960574B2, “Antagonists of RF-amide neuropeptides” (University of Florida, priority 2002, dated 2005).
Peptide text beside a SMILES is read from it. * marks the point of attachment. Dansyl = CN(C)c1cccc2c(S(=O)(=O)*)cccc12

Tested on: receptor labeled by the radioiodinated analogue of 1 (4, [125I]-YLFQPQRF-NH2); neuropeptide FF receptor
Test: Competitive radioligand binding against 4 ([125I]Y8F-amide)
Conditions: mixture-based positional scanning; difference from averaged radioligand displacement of whole library (0); about 80 a.u. = 10-fold change in Ki

| Structure (SMILES) | Relative Binding Index (RBI) |
| --- | --- |
| CC(C)[C@H](NS(=O)(=O)c1cccc2c(N(C)C)cccc12)C(=O)N[C@@H](CO)C(=O)N[C@@H](CCCNC(=N)N)C(N)=O [Dansyl-VSR-amide] | 16 a.u. |
| CC(C)[C@H](NS(=O)(=O)c1cccc2c(N(C)C)cccc12)C(=O)N[C@H](C(=O)N[C@@H](CCCNC(=N)N)C(N)=O)[C@@H](C)O [Dansyl-VTR-amide] (Dansyl-Val-Thr-Arg-NH2) | 1 a.u. |
| CC(C)[C@H](NC(=O)[C@@H](NS(=O)(=O)c1cccc2c(N(C)C)cccc12)C(C)C)C(=O)N[C@@H](CCCNC(=N)N)C(N)=O [Dansyl-VVR-amide] (Dansyl-Val-Val-Arg-NH2) | −9 a.u. |
| CC(C)[C@H](NS(=O)(=O)c1cccc2c(N(C)C)cccc12)C(=O)N[C@@H](Cc1c[nH]c2ccccc12)C(=O)N[C@@H](CCCNC(=N)N)C(N)=O [Dansyl-VWR-amide] (Dansyl-Val-Trp-Arg-NH2) | 4 a.u. |
| CC(C)[C@H](NS(=O)(=O)c1cccc2c(N(C)C)cccc12)C(=O)N[C@@H](Cc1ccc(O)cc1)C(=O)N[C@@H](CCCNC(=N)N)C(N)=O [Dansyl-VYR-amide] (Dansyl-Val-Tyr-Arg-NH2) | −6 a.u. |
| C[C@H](NC(=O)[C@H](Cc1c[nH]c2ccccc12)NS(=O)(=O)c1cccc2c(N(C)C)cccc12)C(=O)N[C@@H](CCCNC(=N)N)C(N)=O [Dansyl-WAR-amide] (Dansyl-Trp-Ala-Arg-NH2) | −40 a.u. |
| CN(C)c1cccc2c(S(=O)(=O)N[C@@H](Cc3c[nH]c4ccccc34)C(=O)N[C@@H](CC(=O)O)C(=O)N[C@@H](CCCNC(=N)N)C(N)=O)cccc12 [Dansyl-WDR-amide] (Dansyl-Trp-Asp-Arg-NH2) | −9 a.u. |
| CN(C)c1cccc2c(S(=O)(=O)N[C@@H](Cc3c[nH]c4ccccc34)C(=O)N[C@@H](CCC(=O)O)C(=O)N[C@@H](CCCNC(=N)N)C(N)=O)cccc12 [Dansyl-WER-amide] (Dansyl-Trp-Glu-Arg-NH2) | 9 a.u. |
| CN(C)c1cccc2c(S(=O)(=O)N[C@@H](Cc3c[nH]c4ccccc34)C(=O)N[C@@H](Cc3ccccc3)C(=O)N[C@@H](CCCNC(=N)N)C(N)=O)cccc12 [Dansyl-WFR-amide] | 7 a.u. |
| CN(C)c1cccc2c(S(=O)(=O)N[C@@H](Cc3c[nH]c4ccccc34)C(=O)NCC(=O)N[C@@H](CCCNC(=N)N)C(N)=O)cccc12 [Dansyl-WGR-amide] (Dansyl-Trp-Gly-Arg-NH2) | 14 a.u. |
| CN(C)c1cccc2c(S(=O)(=O)N[C@@H](Cc3c[nH]c4ccccc34)C(=O)N[C@@H](Cc3c[nH]cn3)C(=O)N[C@@H](CCCNC(=N)N)C(N)=O)cccc12 [Dansyl-WHR-amide] (Dansyl-Trp-His-Arg-NH2) | 3 a.u. |
| CCC(C)C(NC(=O)C(Cc1c[nH]c2ccccc12)NS(=O)(=O)c1cccc2c(N(C)C)cccc12)C(=O)NC(CCCNC(=N)N)C(N)=O (stereo not drawn) [Dansyl-WIR-amide] (Dansyl-Trp-Ile-Arg-NH2; configuration not given here) | 15 a.u. |
| CN(C)c1cccc2c(S(=O)(=O)N[C@@H](Cc3c[nH]c4ccccc34)C(=O)N[C@@H](CCCCN)C(=O)N[C@@H](CCCNC(=N)N)C(N)=O)cccc12 [Dansyl-WKR-amide] (Dansyl-Trp-Lys-Arg-NH2) | 6 a.u. |
| CC(C)C[C@H](NC(=O)[C@H](Cc1c[nH]c2ccccc12)NS(=O)(=O)c1cccc2c(N(C)C)cccc12)C(=O)N[C@@H](CCCNC(=N)N)C(N)=O [Dansyl-WLR-amide] | 0 a.u. |
| CSCC[C@H](NC(=O)[C@H](Cc1c[nH]c2ccccc12)NS(=O)(=O)c1cccc2c(N(C)C)cccc12)C(=O)N[C@@H](CCCNC(=N)N)C(N)=O [Dansyl-WMR-amide] (Dansyl-Trp-Met-Arg-NH2) | 9 a.u. |
| CN(C)c1cccc2c(S(=O)(=O)N[C@@H](Cc3c[nH]c4ccccc34)C(=O)N[C@@H](CC(N)=O)C(=O)N[C@@H](CCCNC(=N)N)C(N)=O)cccc12 [Dansyl-WNR-amide] (Dansyl-Trp-Asn-Arg-NH2) | 10 a.u. |
| CN(C)c1cccc2c(S(=O)(=O)N[C@@H](Cc3c[nH]c4ccccc34)C(=O)N3CCC[C@H]3C(=O)N[C@@H](CCCNC(=N)N)C(N)=O)cccc12 [Dansyl-WPR-amide] (Dansyl-Trp-Pro-Arg-NH2) | 12 a.u. |
| CN(C)c1cccc2c(S(=O)(=O)N[C@@H](Cc3c[nH]c4ccccc34)C(=O)N[C@@H](CCC(N)=O)C(=O)N[C@@H](CCCNC(=N)N)C(N)=O)cccc12 [Dansyl-WQR-amide] (Dansyl-Trp-Gln-Arg-NH2) | 22 a.u. |
| CN(C)c1cccc2c(S(=O)(=O)N[C@@H](Cc3c[nH]c4ccccc34)C(=O)N[C@@H](CCCNC(=N)N)C(=O)N[C@@H](CCCNC(=N)N)C(N)=O)cccc12 [Dansyl-WRR-amide] (Dansyl-Trp-Arg-Arg-NH2) | 7 a.u. |
| CN(C)c1cccc2c(S(=O)(=O)N[C@@H](Cc3c[nH]c4ccccc34)C(=O)N[C@@H](CO)C(=O)N[C@@H](CCCNC(=N)N)C(N)=O)cccc12 [Dansyl-WSR-amide] (Dansyl-Trp-Ser-Arg-NH2) | 29 a.u. |

| Structure (SMILES) | Relative Binding Index (RBI) |
| --- | --- |
| C[C@@H](O)[C@H](NC(=O)[C@H](Cc1c[nH]c2ccccc12)NS(=O)(=O)c1cccc2c(N(C)C)cccc12)C(=O)N[C@@H](CCCNC(=N)N)C(N)=O [Dansyl-WTR-amide] (Dansyl-Trp-Thr-Arg-NH2) | 14 a.u. |
| CC(C)[C@H](NC(=O)[C@H](Cc1c[nH]c2ccccc12)NS(=O)(=O)c1cccc2c(N(C)C)cccc12)C(=O)N[C@@H](CCCNC(=N)N)C(N)=O [Dansyl-WVR-amide] (Dansyl-Trp-Val-Arg-NH2) | 4 a.u. |
| CN(C)c1cccc2c(S(=O)(=O)N[C@@H](Cc3c[nH]c4ccccc34)C(=O)N[C@@H](Cc3c[nH]c4ccccc34)C(=O)N[C@@H](CCCNC(=N)N)C(N)=O)cccc12 [Dansyl-WWR-amide] (Dansyl-Trp-Trp-Arg-NH2) | 17 a.u. |
| CN(C)c1cccc2c(S(=O)(=O)N[C@@H](Cc3c[nH]c4ccccc34)C(=O)N[C@@H](Cc3ccc(O)cc3)C(=O)N[C@@H](CCCNC(=N)N)C(N)=O)cccc12 [Dansyl-WYR-amide] (Dansyl-Trp-Tyr-Arg-NH2) | 7 a.u. |
| C[C@H](NC(=O)[C@H](Cc1ccc(O)cc1)NS(=O)(=O)c1cccc2c(N(C)C)cccc12)C(=O)N[C@@H](CCCNC(=N)N)C(N)=O [Dansyl-YAR-amide] (Dansyl-Tyr-Ala-Arg-NH2) | −42 a.u. |
| CN(C)c1cccc2c(S(=O)(=O)N[C@@H](Cc3ccc(O)cc3)C(=O)N[C@@H](CC(=O)O)C(=O)N[C@@H](CCCNC(=N)N)C(N)=O)cccc12 [Dansyl-YDR-amide] (Dansyl-Tyr-Asp-Arg-NH2) | −11 a.u. |
| CN(C)c1cccc2c(S(=O)(=O)N[C@@H](Cc3ccc(O)cc3)C(=O)N[C@@H](CCC(=O)O)C(=O)N[C@@H](CCCNC(=N)N)C(N)=O)cccc12 [Dansyl-YER-amide] (Dansyl-Tyr-Glu-Arg-NH2) | 7 a.u. |
| CN(C)c1cccc2c(S(=O)(=O)N[C@@H](Cc3ccc(O)cc3)C(=O)N[C@@H](Cc3ccccc3)C(=O)N[C@@H](CCCNC(=N)N)C(N)=O)cccc12 [Dansyl-YFR-amide] (Dansyl-Tyr-Phe-Arg-NH2) | 6 a.u. |
| CN(C)c1cccc2c(S(=O)(=O)N[C@@H](Cc3ccc(O)cc3)C(=O)NCC(=O)N[C@@H](CCCNC(=N)N)C(N)=O)cccc12 [Dansyl-YGR-amide] (Dansyl-Tyr-Gly-Arg-NH2) | 12 a.u. |
| CN(C)c1cccc2c(S(=O)(=O)N[C@@H](Cc3ccc(O)cc3)C(=O)N[C@@H](Cc3cnc[nH]3)C(=O)N[C@@H](CCCNC(=N)N)C(N)=O)cccc12 [Dansyl-YHR-amide] (Dansyl-Tyr-His-Arg-NH2) | 1 a.u. |
| CC[C@H](C)[C@H](NC(=O)[C@H](Cc1ccc(O)cc1)NS(=O)(=O)c1cccc2c(N(C)C)cccc12)C(=O)N[C@@H](CCCNC(=N)N)C(N)=O [Dansyl-YIR-amide] (Dansyl-Tyr-Ile-Arg-NH2) | 13 a.u. |
| CN(C)c1cccc2c(S(=O)(=O)N[C@@H](Cc3ccc(O)cc3)C(=O)N[C@@H](CCCCN)C(=O)N[C@@H](CCCNC(=N)N)C(N)=O)cccc12 [Dansyl-YKR-amide] (Dansyl-Tyr-Lys-Arg-NH2) | 5 a.u. |
| CC(C)C[C@H](NC(=O)[C@H](Cc1ccc(O)cc1)NS(=O)(=O)c1cccc2c(N(C)C)cccc12)C(=O)N[C@@H](CCCNC(=N)N)C(N)=O [Dansyl-YLR-amide] (Dansyl-Tyr-Leu-Arg-NH2) | −1 a.u. |
| CSCC[C@H](NC(=O)[C@H](Cc1ccc(O)cc1)NS(=O)(=O)c1cccc2c(N(C)C)cccc12)C(=O)N[C@@H](CCCNC(=N)N)C(N)=O [Dansyl-YMR-amide] (Dansyl-Tyr-Met-Arg-NH2) | 7 a.u. |
| CN(C)c1cccc2c(S(=O)(=O)N[C@@H](Cc3ccc(O)cc3)C(=O)N[C@@H](CC(N)=O)C(=O)N[C@@H](CCCNC(=N)N)C(N)=O)cccc12 [Dansyl-YNR-amide] (Dansyl-Tyr-Asn-Arg-NH2) | 8 a.u. |
| CN(C)c1cccc2c(S(=O)(=O)N[C@@H](Cc3ccc(O)cc3)C(=O)N3CCC[C@H]3C(=O)N[C@@H](CCCNC(=N)N)C(N)=O)cccc12 [Dansyl-YPR-amide] (Dansyl-Tyr-Pro-Arg-NH2) | 10 a.u. |
| CN(C)c1cccc2c(S(=O)(=O)N[C@@H](Cc3ccc(O)cc3)C(=O)N[C@@H](CCC(N)=O)C(=O)N[C@@H](CCCNC(=N)N)C(N)=O)cccc12 [Dansyl-YQR-amide] (Dansyl-Tyr-Gln-Arg-NH2) | 21 a.u. |
| CN(C)c1cccc2c(S(=O)(=O)N[C@@H](Cc3ccc(O)cc3)C(=O)N[C@@H](CCCNC(=N)N)C(=O)N[C@@H](CCCNC(=N)N)C(N)=O)cccc12 [Dansyl-YRR-amide] (Dansyl-Tyr-Arg-Arg-NH2) | 6 a.u. |
| CN(C)c1cccc2c(S(=O)(=O)N[C@@H](Cc3ccc(O)cc3)C(=O)N[C@@H](CO)C(=O)N[C@@H](CCCNC(=N)N)C(N)=O)cccc12 [Dansyl-YSR-amide] (Dansyl-Tyr-Ser-Arg-NH2) | 28 a.u. |
